Data published in a melting point compilation (Tetko et al.; mined from patent text by program, amines drawn as free bases though some values may be those of a salt).

SMILES | melting point
CCOC(=O)C(C(C)=O)C(CC(=O)c1ccccc1)c1ccc(OC)c(OC)c1 (configuration not stated) | 135 °C
CSc1nsc(-c2ccccc2)n1 | 57.1 °C
CC(C)(Oc1ccc(OCc2nc(-c3ccc(C(C)(C)C)cc3)no2)cc1)C(=O)O | 138 to 140 °C
COc1cc(O)c(C(=O)C=Cc2ccc(OCc3ccccc3)c(OC)c2)c(OC)c1 | 131 °C
O=C(O)CN1C(=O)O[C@H](c2ccccc2)[C@@H]1c1ccccc1 | 161 to 163 °C
CCOC(=O)c1cc(C)n(-c2ccc([N+](=O)[O-])cn2)c1-c1ccccc1 | 147 to 149 °C
O=C(O)c1cn(C2CC2)c2c(F)c(N3CC(N4CCCC4)C3)c(F)cc2c1=O | 224 to 227 °C
COc1cccc(SCCC(=O)O)c1F | 72 to 74 °C
Cn1cnc2nc(-c3cc(Cl)c(Cl)cc3C(=O)O)nn2c1=S | 298 to 300 °C
Cn1c(C(F)(F)F)nn(Cc2c(Cl)ccc(C(=O)O)c2Cl)c1=O | 207 °C
CN1CCN(C(=O)c2ccc(CCc3cc4cc(C#N)ccc4o3)cc2)CC1 | 115 to 116 °C
CCOC(C#N)NC(=O)c1cccc(OC)c1 (configuration not stated) | 72 °C
O=C(CCC#Cc1ccccn1)Nc1ccc(Cl)cc1 | 110 to 111 °C
Cn1cc(C(=O)NCc2ccc(Cl)cc2)c(=O)c2cc(C(C)(C)CCO)ccc21 | 135 to 138 °C
CCCc1nc(CSc2ccc(CCC(=O)O)cc2)c(C(=O)O)n1Cc1cc2c(cc1Cl)OCO2 | 171 °C
CON=C1Cc2ccccc2N(C(N)=O)c2ccccc21 | 158 to 159 °C
CS(=O)(=O)c1ccc(-n2nc(C(F)(F)F)cc2-c2ccc(-c3cscn3)cc2)cc1F | 125 to 127 °C
CCCC(CO)n1cnc(C(N)=O)c1 (configuration not stated) | 160 °C
COC(=O)c1cc(C#N)ccc1Cl | 100 to 103 °C
CSCC(C)(C)NC(=O)c1c(I)cccc1[N+](=O)[O-] | 114 to 115 °C
CNC(=C[N+](=O)[O-])NCCSCc1csc(CN2CCCCC2)n1 | 100 to 103 °C
O=[N+]([O-])C(CN(Cc1ccccc1)Cc1ccccc1)=C1NCCCS1 | 108 to 110 °C
OC1CSC(Oc2ccc(-c3ccco3)cc2)C(O)C1O (configuration not stated) | 200 °C
Nc1cccc(C=C2NC(=O)NC2=O)c1 | 280 to 284 °C
CCC(=O)NCC1CCC(Nc2nc3c(s2)CCOc2ccccc2-3)CC1 (configuration not stated) | 56 to 60 °C
NCc1c(Cc2ccccc2)nc2ccc(OCC(N)=O)cc2c1-c1ccccc1 | 180 to 182 °C

SMILES | melting point
CCCCCC(C)(O)C=CC1CCC(=O)C1CCCCCCC(=O)O (configuration not stated) | 61 to 62 °C
COc1cc(Nc2nccc(-c3ccc[nH]3)n2)cc(OC)c1OC | 150 °C
CCC(=NOc1ccc(F)cc1)c1cc(Cl)ccc1NS(=O)(=O)C(F)(F)F | 47 to 48 °C
O=C(O)Cc1cccc([N+](=O)[O-])c1[N+](=O)[O-] | 209 to 215 °C
CN(CCc1ccc(O)c(O)c1)C(=O)OCc1ccccc1 | 105 to 106 °C
CCCCn1c(=O)c2c(ncn2S(=O)(=O)CCCC)n(CCCC)c1=O | 55 to 57 °C
O=C1CCN2CC3c4ccccc4CCc4cccc(c43)C2C1 (configuration not stated) | 163 to 165 °C
Cc1cccc(-c2[nH]c(C(C)C)nc2-c2ccc(F)c(-c3ccc4c(c3)CCS4(=O)=O)c2)n1 | 119 to 123 °C
O=C(O)C(=O)c1ccc(OCCOc2ccccc2F)cc1 | 108 to 110 °C
Clc1ccc(-n2nc(C3CC3)cc2C2CC2)nn1 | 102 to 105 °C
CC(C)[C@@H]1CC[C@@H](C)C[C@H]1OC(=O)NCCC(C)n1cnc2c(N)nc3ccccc3c21 (some centres not stated) | 84 to 86 °C
COc1cc(CN(C(N)=S)[C@@H](COC(=O)C(C)(C)C)Cc2ccccc2)ccc1OCCN | 49 °C
CCCCCCCCCCCCCCOc1ccc(COC(=O)NCc2ccccn2)cc1 | 67 to 68 °C
Cc1c(C)c2c(c(C)c1NC(=O)NC(C)(C)CO)C(c1ccc(C(C)C)cc1)CO2 (configuration not stated) | 157 to 158 °C
COC(=O)CCCC(=O)N(CCc1c[nH]c2ccccc12)CC1CC1 | 99 to 100 °C
Cn1cc(C(=O)Nc2nc(-c3ccco3)c(C(=O)c3ccccc3)s2)ccc1=O | 220 to 225 °C
c1cncc(-c2noc(-c3ccco3)n2)c1 | 110 to 114 °C
CC(C)(O)c1ccc(-c2cnc3c(n2)N(CCC2CCOCC2)CC(=O)N3)cc1 | 210 to 212 °C
COC(=O)c1cc(O)ccc1N | 154 to 155 °C
CC(=O)Nc1cccc(C(=O)N2CCN(CCc3ccc(Cl)cc3)CC2)c1 | 101 to 107 °C
O=S(=O)(CCCCl)c1ccc(Cl)cc1 | 69 to 72 °C
N#Cc1[nH]n(-c2ccccc2)c(=O)c1N=Nc1cc(S(=O)(=O)Cl)ccc1Cl | 115 to 120 °C
CCn1cc(C(=O)O)c(=O)c2cc(F)c(N3CCNC(CN(C)C)C3)cc21 (configuration not stated) | 148 to 150 °C
Oc1ncnc2c(-c3ccc(Cc4ccccc4)cc3)cnn12 | 300 to 303 °C
Nn1nc(-c2ccc(Cl)cc2)cc1OCCN1CCCC1 | 131 °C
O=C1CC(c2ccccc2O)=Nc2ccc(N3CCOCC3)cc21 | 290 to 291 °C

SMILES | melting point
C[C@H]1C(=O)C[C@@H]2C[C@H]1OO[C@]2(C)/C=C\c1cc(C(F)(F)F)nc2cc(C(F)(F)F)ccc12 | 160 °C
Cn1cc(C(=O)O)c(=O)c2cc(Cl)c(N3CCNCC3)cc21 | 288 °C
O=C(O)Cc1ccc(C(=O)O)cc1Sc1ccc(F)cc1 | 218 to 221 °C
CC(=O)n1c(SC(F)(F)C(F)F)nc(-c2ccccc2)c1-c1ccccc1 | 143 to 144 °C
CCCCC[C@H]1CC[C@H](CCc2ccc(CCC)c(C#N)c2C#N)CC1 | 83.6 °C
O=C1c2ccccc2C(=O)N1N1C2CCCCC21 (configuration not stated) | 75 to 77 °C
CN(C)CCOC(=O)C(=O)c1ccc(OCCOc2ccc3ccccc3c2)s1 | 76 to 77 °C
CN1CNC(=S)N(c2ccccc2)C1 | 175 to 176 °C
Cc1ccc(C23CCC(O)(CC2)CC3)cc1 | 144 °C
CCC(=S)N1CCSC1=Nc1ccccc1C(C)C | 79 to 81 °C
O=C(c1ccccc1)c1c[nH]c2ccc(OCc3ccc4ccccc4n3)cc12 | 214 to 216 °C
CCCCN(CC(O)C(Cc1ccccc1)NC(=O)C(CC(N)=O)NC(=O)NCc1ccccc1)C(=O)NC(C)(C)C (configuration not stated) | 166 to 167 °C
COC(=O)c1cc(Cl)cc(Cl)n1 | 75 to 77 °C
COCC1COc2cc3ncnc(Nc4ccc(F)c(Cl)c4)c3cc2O1 (configuration not stated) | 260 to 285 °C
COc1ccc(Nc2ccc(Cl)cc2C(=O)O)cc1 | 188 to 189 °C
O=c1[nH]c(C(F)(F)F)c(Br)c(=O)n1-c1c(Cl)cc(Cl)cc1Cl | 219 to 222 °C
N#Cc1ccc2[nH]nc(-c3ccccc3)c2c1 | 150 to 151 °C
CCS(=O)(=O)CCON=Cc1nn(-c2c(Cl)cc(C(F)(F)F)cc2Cl)c(N)c1S(C)=O (configuration not stated) | 144 to 148 °C
Cc1cc(C)nc(NC(=O)NS(=O)(=O)Nc2nc(C)cc(C)n2)n1 | 198 °C
CCOC(=O)CC[C@H](NC(=O)Oc1ccc(CCCCc2c(N)nc(N)nc2O)s1)C(=O)OCC | 96 to 98 °C
COC(=O)C(=NO)c1cnsc1 | 110 to 112 °C
CC(=O)NC[C@H]1CN(c2ccc(N3CCC(F)(CC#N)CC3)c(F)c2)C(=O)O1 | 210 to 212 °C
COc1ccc2c(c1)C(=O)C(O)=C([N+](=O)[O-])C2=O | 152 to 155 °C
Cc1cc(CC(C)(C)CO)cc(C)c1O | 133 to 134 °C
OC(CCc1ccccc1)c1cnc2sc3c(n12)CCCCCC3 (configuration not stated) | 123 to 124 °C
Nc1cccc2c1CN(C(CCC(=O)O)C(=O)O)C2=O (configuration not stated) | 183 to 185 °C

SMILES | melting point
O=C(c1ccc(F)cc1)N1CC2CC2(c2ccc(Cl)cc2)C1 (configuration not stated) | 130 to 132 °C
CCc1cccc(C(O)CCc2ccccc2)c1NC(=O)CC1c2ccccc2Oc2ccccc21 (configuration not stated) | 128 to 129 °C
C#CC1(OC(C)=O)C(COC(=O)c2ccc(Cl)cc2)OC(n2ccc(=O)[nH]c2=O)C1OC(C)=O (configuration not stated) | 218 to 219 °C
CCOC(=O)COc1ccccc1-c1nc2n(C3CCCC3)[nH]c(CC)c-2c(=O)n1 | 116 to 117 °C
Cn1c(-c2n[nH]c(=O)[nH]2)nc2ccccc21 | 293 to 296 °C
CCC(=O)N1CCN(c2n[nH]c3ncnc(Nc4cccc(Cl)c4)c23)CC1 | 247 to 250 °C
COc1ccccc1CN1CCN(C)CC1C1=NCCN1 (configuration not stated) | 168 to 170 °C
CN[C@@H](Cc1ccc(C(F)(F)F)cc1)[C@H](O)c1ccc(F)cc1 (racemic) | 79 to 80 °C
O=[N+]([O-])c1ccc(-c2nc(CO)no2)cc1 | 155 to 156 °C
CCOC(=O)/C=C(C)/C=C/C=C(C)/C=C(/F)c1c(C)cc(OC)c(C)c1C | 74 to 87 °C
S=C(NCc1cccnc1)c1[nH]c2ccc(Cl)cc2c1-c1ccccc1 | 240 to 241 °C
O=C1C2CCCCN2C(=S)N1c1ccc(F)cc1F (configuration not stated) | 159 to 160 °C
COC(=O)C1=C(C)NC(C)=C(C(=O)OCCN2CCCN(C(c3ccccc3)c3ccccc3)CC2)C1c1cccc([N+](=O)[O-])c1 (configuration not stated) | 60 to 63 °C
Nc1ccc(-c2ncnn2-c2ccc(F)cc2)cc1 | 128 to 130 °C
Cc1cc(-n2ccnc2)c2cccc(OCc3c(Cl)ccc(S(=O)(=O)N4CCC[C@H]4C(=O)NCCCNC(=O)c4ccc(C=NN)cc4)c3Cl)c2n1 | 148 °C
CS(=O)(=O)c1ccc(-c2sc(-c3ccccc3Cl)nc2-c2ccc(F)cc2)cc1 | 133 to 134 °C
Sc1nc2cnccc2[nH]1 | > 320 °C
Cc1nc(NC(=O)CC2CC2)sc1C(=O)NCc1ccccc1 | 136 to 139 °C
CC1(C)c2cc(OCc3ccccc3)ccc2OC1CO (configuration not stated) | 55 to 58 °C
COC(=O)c1cc(C(=O)O)cc(-c2cc(Cl)ccc2Cl)c1 | 222 to 224 °C
CCCn1c(=O)n2c(C)nnc2c2c1ncn2C | 192 to 194 °C
CCOCc1nc2c(N)nc3ccc(N4CCOC4=O)cc3c2n1CC(C)(C)O | 207 to 210 °C
CCN1CCCOc2ccc(Nc3ncc(Cl)c(Nc4ccsc4C(=O)NC)n3)cc21 | 153 to 155 °C
O=C(O)c1cn(C2CC2)c2c(F)c(N3C[C@H](CF)[C@H](NC(=O)C(F)(F)F)C3)c(F)c(F)c2c1=O (relative stereo) | 283 to 284 °C
